Experimental data: PMC12263876, “DDX39B K63-linked ubiquitination mediated by TRIM28 promotes NSCLC metastasis by enhancing ECAD lysosomal degradation” (Signal Transduction and Targeted Therapy, 2025)

Biological target: T1, DDX39B (Homo sapiens, UniProt Q13838)
T1 construct: His-DDX39B
Experiment: SPR (KD […]); also BLI with biotinylated His-DDX39B (KD […]) and CETSA in NSCLC cells
Type: binding

T1 sequence (Q13838 2-428): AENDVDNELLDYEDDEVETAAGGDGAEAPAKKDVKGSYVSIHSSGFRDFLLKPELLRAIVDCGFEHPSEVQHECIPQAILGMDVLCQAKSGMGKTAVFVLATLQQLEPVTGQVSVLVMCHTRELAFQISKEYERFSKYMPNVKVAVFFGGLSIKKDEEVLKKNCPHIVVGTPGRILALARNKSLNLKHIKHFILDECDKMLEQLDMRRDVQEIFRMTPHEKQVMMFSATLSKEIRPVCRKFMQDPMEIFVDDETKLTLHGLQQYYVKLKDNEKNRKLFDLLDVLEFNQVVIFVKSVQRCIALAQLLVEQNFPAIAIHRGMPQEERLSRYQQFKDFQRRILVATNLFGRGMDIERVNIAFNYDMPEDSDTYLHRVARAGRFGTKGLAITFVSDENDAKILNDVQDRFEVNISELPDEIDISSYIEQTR

Kd: 3.23 µM
Structure (SMILES): C[C@H]1[C@H](OC(=O)CCC(=O)O)O[C@@H]2O[C@@]3(C)CC[C@H]4[C@H](C)CC[C@@H]1[C@@]24OO3 [artesunate]
